According to publication PMC6272341, “Synthesis and Biological Evaluation of N-Alkoxyphenyl-3-hydroxynaphthalene-2-carboxanilides” (Molecules, 2015):
Converted amounts (≈) assume the structure as drawn. “And” between values parts separate entries of the source, which are not always exact repeats. Equal entries are not always repeated. Where two headings read alike, the source gives them in different places.

Columns and labels:
S. aureus ATCC 29213 = assay: In vitro antibacterial susceptibility testing, broth dilution micro-method (MIC); settings: Staphylococcus aureus, ATCC29213, 24 h, read-out: MIC SA
[1] = tested on: methicillin-resistant S. aureus clinical isolate MRSA 63718; assay: as above; settings: for MIC: Staphylococcus aureus, MRSA, read-out: MIC MRSA 63718, clinical isolate MRSA 63718
[2] = tested on: methicillin-resistant S. aureus clinical isolate SA 630; assay: as above; settings: 24 h; for MIC: Staphylococcus aureus, MRSA, read-out: MIC MRSA SA 630, clinical isolate MRSA SA 630, 37 °C, MH broth
[3] = tested on: methicillin-resistant S. aureus clinical isolate SA 3202; assay: as above; settings: 24 h; for MIC: Staphylococcus aureus, MRSA, read-out: MIC MRSA 3202, clinical isolate MRSA 3202, 37 °C, MH broth
[4] = tested on: M. tuberculosis H37Ra ATCC 25177; assay: In vitro antimycobacterial evaluation, alamarBlue (MIC); assay type: cell-based; settings: Mycobacterium tuberculosis, 168 h, read-out: MIC MT
Experimental: The evaluation of the in vitro antimycobacterial activity of the compounds was performed against M. tuberculosis H37Ra ATCC 25177 [25] and clinical isolate of M. avium subsp. paratuberculosis CIT03 [26], see Table 1. The activity of compounds was expressed as the minimum inhibitory concentration (MIC) that is defined for mycobacteria as a 90% or greater (IC90) reduction of growth in comparison with the control. The MIC/IC90 value is routinely and widely used in bacterial assays, being a standard detection limit according to the Clinical and Laboratory Standards Institute.
Mycobacterium tuberculosis H37Ra ATCC 25177 and well characterised clinical isolate M. avium subsp. paratuberculosis CIT03 were grown in Middlebrook broth (MB), supplemented with Oleic-Albumin-Dextrose-Catalase supplement (Becton Dickinson, Oxford, UK) and mycobactin J (2 μg/mL). Identification of these isolates was performed using biochemical and molecular protocols. At log phase growth, a culture sample (10 mL) was centrifuged at 15,000 rpm/20 min using a bench top centrifuge (Model CR 4-12, Jouan Inc., Winchester, VA, USA). Following removal of the supernatant, the pellet was washed in fresh Middlebrook 7H9GC broth and re-suspended in fresh supplemented MB (10 mL). The turbidity was adjusted to match McFarland standard No. 1 (3 × 10^8 cfu) with MB broth. A further 1:20 dilution of the culture was then performed in MB broth. The antimicrobial susceptibility of all three mycobacterial species was investigated in a 96-well plate format. In these experiments, sterile deionised water (300 µL) was added to all outer-perimeter wells of the plates to minimize evaporation of the medium in the test wells during incubation. Sample wells were composed of 100 µL of test compound dilution and 100 µL of the bacterial stock being tested against. Dilutions of each compound were prepared in duplicate. For all synthesized compounds, final concentrations ranged from 1000 μg/mL to 8 μg/mL. All compounds were prepared in DMSO and subsequent dilutions were made in supplemented MB. The plates were sealed with parafilm and incubated at 37 °C, for 7 days in the case of M. tuberculosis and 11 days in the case of M. avium subsp. paratuberculosis. Following incubation, a 10% addition of alamarBlue (AbD Serotec, Kidlington, UK) was mixed into each well and readings at 570 nm and 600 nm were taken, initially for background subtraction and subsequently after 24 h re-incubation. The background subtraction is necessary for strongly coloured compounds, where the colour may interfere with the interpretation of any colour change. For non-interfering compounds, a blue colour in the well was interpreted as an absence of growth and a pink colour was scored as growth. […] The MIC value is routinely and widely used in bacterial assays and is a standard detection limit according to the Clinical and Laboratory Standards Institute (CLSI,). Rifampicin (Sigma-Aldrich) was used as the standard as it is clinically used antimycobacterial drugs.

[5] = tested on: clinical isolate of M. avium subsp. paratuberculosis CIT03; assay: as above; assay type: cell-based; settings: Mycobacterium avium, 264 h, read-out: MIC MAP
[6] = tested on: human monocytic leukemia THP-1 cells; settings: 24 h
[7] = tested on: photosynthetic electron transport in spinach chloroplasts; assay: Inhibition of photosynthetic electron transport (PET), DCPIP photoreduction (Hill reaction); assay type: biochemical, spinach (Spinacia oleracea L.)
Experimental: The PET inhibiting activity of the compounds was expressed by IC50 values. […] The aqueous solubility of the para-substituted compounds was limited; therefore IC50 values could not be determined due to precipitation of compounds during experiment. […]
Chloroplasts were prepared from spinach (Spinacia oleracea L.) according to Masarovicova and Kralova. The inhibition of photosynthetic electron transport (PET) in spinach chloroplasts was determined spectrophotometrically (Genesys 6, Thermo Scientific Corporation), using an artificial electron acceptor 2,6-dichlorophenol-indophenol (DCPIP) according to Kralova et al., and the rate of photosynthetic electron transport was monitored as a photoreduction of DCPIP. The measurements were carried out in phosphate buffer (20.0 mM, pH 7.2) containing sucrose (0.4 M), MgCl2 (5.0 mM) and NaCl (15.0 mM). The chlorophyll content was 30 mg/L in these experiments and the samples were irradiated (~100 W/m^2 with 10 cm distance) with a halogen lamp (250 W) using a 4 cm water filter to prevent warming of the samples (suspension temperature 22 °C). The studied compounds were dissolved in DMSO due to their limited aqueous solubility. The applied DMSO concentration (up to 4%) had negligible effect on the photochemical activity in isolated spinach chloroplasts (observed differences in DCPIP photoreduction due DMSO addition were within experimental error). The inhibitory efficiency of the studied compounds was expressed by IC50 values, i.e., by molar concentration of the compounds causing 50% decrease in DCPIP photoreduction relative to the untreated control. […] All reagents used in this study were of analytical grade and were purchased from Sigma.

[8] = M. avium subsp. paratuberculosis CIT03, 11 days, 37 °C, alamarBlue, MIC/IC90
[9] = M. tuberculosis H37Ra, 7 days, 37 °C, alamarBlue, MIC/IC90

Row | Structure (SMILES) | MIC (S. aureus ATCC 29213) [µM] | MIC ([1]; 24 h, 24 h, 37 °C, MH broth) [µM] | MIC [2] [µM] | MIC [3] [µM] | MIC [4] [µM] | MIC [5, 8] [µM] | LD50 [6] [µM] | MIC [4, 9] [µM] | IC50 [7] | MIC [5] [µM] | activity fold higher than that of ampicillin ([1]; antibacterial activity against MRSA strains versus ampicillin) [fold] | MIC MRSA 63718 ([1]; clinical isolate MRSA 63718, 24 h, 37 °C, MH broth) [µM] | MIC MRSA SA 630 ([2]; clinical isolate MRSA SA 630, 37 °C, MH broth) [µM] | MIC MRSA 3202 ([3]; clinical isolate MRSA 3202, 37 °C, MH broth) [µM]
1 | CC1(C)S[C@@H]2[C@H](NC(=O)[C@H](N)c3ccccc3)C(=O)N2[C@H]1C(=O)O [APC, ampicillin, reference compound] | 5.7 (≈ 1.99 µg/mL) | > 46 | > 46 | > 46 | – | – | – | – | – | – | – | – | – | –
2 | O=C(Nc1ccccc1)c1cc2ccccc2cc1O [Compound 2, 3-Hydroxy-N-phenylnaphthalene-2-carboxamide] | 972 (≈ 256 µg/mL) | 972 (≈ 256 µg/mL) | 972 (≈ 256 µg/mL) | 972 (≈ 256 µg/mL) | 950 (≈ 250 µg/mL) | 950 (≈ 250 µg/mL) | >30 | – | – | – | – | – | – | –
3 | COc1ccccc1NC(=O)c1cc2ccccc2cc1O [Compound 3a, 3-hydroxy-N-(2-methoxyphenyl)naphthalene-2-carboxamide] | 55 (≈ 16.1 µg/mL) | 55 (≈ 16.1 µg/mL) | 55 (≈ 16.1 µg/mL) | 55 (≈ 16.1 µg/mL) | – | 205 (≈ 60.1 µg/mL) | – | 51 (≈ 15 µg/mL) | 59.5 µM | – | – | – | – | –
4 | COc1cccc(NC(=O)c2cc3ccccc3cc2O)c1 [Compound 3b, 3-hydroxy-N-(3-methoxyphenyl)naphthalene-2-carboxamide] | 873 (≈ 256 µg/mL) | 873 (≈ 256 µg/mL) | 873 (≈ 256 µg/mL) | 873 (≈ 256 µg/mL) | – | 426 (≈ 125 µg/mL) | >30 | 51 (≈ 15 µg/mL) | 53.4 µM | – | – | – | – | –
5 | COc1ccc(NC(=O)c2cc3ccccc3cc2O)cc1 [Compound 3c, 3-hydroxy-N-(4-methoxyphenyl)naphthalene-2-carboxamide] | 873 (≈ 256 µg/mL) | 873 (≈ 256 µg/mL) | 873 (≈ 256 µg/mL) | 873 (≈ 256 µg/mL) | – | – | >30 | 852 (≈ 250 µg/mL) | – | 852 (≈ 250 µg/mL) | – | – | – | –
6 | CCOc1ccc(NC(=O)c2cc3ccccc3cc2O)cc1 [Compound 4c, N-(4-Ethoxyphenyl)-3-hydroxynaphthalene-2-carboxamide] | 832 (≈ 256 µg/mL) | 832 (≈ 256 µg/mL) | 832 (≈ 256 µg/mL) | 832 (≈ 256 µg/mL) | – | – | >30 | 813 (≈ 250 µg/mL) | – | 813 (≈ 250 µg/mL) | – | – | – | –
7 | CCCOc1ccccc1NC(=O)c1cc2ccccc2cc1O [Compound 5a, 3-Hydroxy-N-(2-propoxyphenyl)naphthalene-2-carboxamide] | 12.4 (≈ 3.99 µg/mL) | 12 (≈ 3.86 µg/mL) | 12 (≈ 3.86 µg/mL) | 12 (≈ 3.86 µg/mL) | – | – | – | 778 (≈ 250 µg/mL) | 128 µM | 778 (≈ 250 µg/mL) | ~4 | 12.4 (≈ 3.99 µg/mL) | 12.4 (≈ 3.99 µg/mL) | 12.4 (≈ 3.99 µg/mL)
8 | CCCOc1cccc(NC(=O)c2cc3ccccc3cc2O)c1 [Compound 5b, 3-Hydroxy-N-(3-propoxyphenyl)naphthalene-2-carboxamide] | 796 (≈ 256 µg/mL) | 796 (≈ 256 µg/mL) | 796 (≈ 256 µg/mL) | 796 (≈ 256 µg/mL) | – | – | – | 778 (≈ 250 µg/mL) | 4.8 µM | 778 (≈ 250 µg/mL) | – | – | – | –
9 | CCCOc1ccc(NC(=O)c2cc3ccccc3cc2O)cc1 [Compound 5c, 3-Hydroxy-N-(4-propoxyphenyl)naphthalene-2-carboxamide] | 796 (≈ 256 µg/mL) | 796 (≈ 256 µg/mL) | 796 (≈ 256 µg/mL) | 796 (≈ 256 µg/mL) | – | – | >30 | 778 (≈ 250 µg/mL) | – | 778 (≈ 250 µg/mL) | – | – | – | –
10 | CCCCOc1ccc(NC(=O)c2cc3ccccc3cc2O)cc1 [Compound 6c, N-(4-Butoxyphenyl)-3-hydroxynaphthalene-2-carboxamide] | 763 (≈ 256 µg/mL) | 763 (≈ 256 µg/mL) | 763 (≈ 256 µg/mL) | 763 (≈ 256 µg/mL) | – | – | >30 | 745 (≈ 250 µg/mL) | – | 745 (≈ 250 µg/mL) | – | – | – | –
11 | CC(C)Oc1ccc(NC(=O)c2cc3ccccc3cc2O)cc1 [Compound 7c, 3-Hydroxy-N-[4-(prop-2-yloxy)phenyl]naphthalene-2-carboxamide] | 796 (≈ 256 µg/mL) | 796 (≈ 256 µg/mL) | 796 (≈ 256 µg/mL) | 796 (≈ 256 µg/mL) | – | 778 (≈ 250 µg/mL) | >30 | 389 (≈ 125 µg/mL) | – | – | – | – | – | –
12 | CCC(C)Oc1ccc(NC(=O)c2cc3ccccc3cc2O)cc1 (centres unmarked) [Compound 8c, N-[4-(But-2-yloxy)phenyl]-3-hydroxynaphthalene-2-carboxamide] | 763 (≈ 256 µg/mL) | 763 (≈ 256 µg/mL) | 763 (≈ 256 µg/mL) | 763 (≈ 256 µg/mL) | – | 745 (≈ 250 µg/mL) | >30 | 89 (≈ 29.9 µg/mL) | – | – | – | – | – | –
13 | CN(C)C(=O)Nc1ccc(Cl)c(Cl)c1 [DCMU, 3-(3,4-dichlorophenyl)-1,1-dimethylurea, reference compound] | – | – | – | – | – | – | – | – | ~1.9 µM and 1.9 µM | – | – | – | – | –
14 | CO[C@H]1/C=C/O[C@@]2(C)Oc3c(C)c(O)c4c(O)c(c(/C=N/N5CCN(C)CC5)c(O)c4c3C2=O)NC(=O)/C(C)=C\C=C\[C@H](C)[C@H](O)[C@@H](C)[C@@H](O)[C@@H](C)[C@H](OC(C)=O)[C@@H]1C [RIF, rifampicin, reference compound] | – | – | – | – | – | 109 (≈ 89.7 µg/mL) | – | 10 (≈ 8.23 µg/mL) | – | – | – | – | – | –
